Experimental data as given in ChEMBL document CHEMBL5356971, “Optimization of the Antibacterial Spectrum and the Developability Profile of the Novel-Class Natural Product Corramycin” (J Med Chem, 2023).

Experiments:
[1] = Metabolic stability in mouse kidney assessed as parent compound remaining measured after 4 hrs by UPLC-MS analysis; assay type: ADME, tissue-based; settings: read-out: Stability
[2] = Metabolic stability in mouse lung assessed as parent compound remaining measured after 4 hrs by UPLC-MS analysis; assay type: ADME, tissue-based; settings: mouse lung, read-out: Stability
[3] = Metabolic stability in mouse lung assessed as parent compound remaining measured after 1 hrs by UPLC-MS analysis; assay type: ADME, tissue-based; settings: mouse lung, read-out: Stability
[4] = Metabolic stability in mouse kidney assessed as parent compound remaining measured after 1 hrs by UPLC-MS analysis; assay type: ADME, tissue-based; settings: read-out: Stability
[5] = system: Escherichia coli; experiment: Antibacterial activity against wild type Escherichia coli ATCC 35218 assessed as reduction in microbial growth incubated for 20 to 22 hrs by CLSI based analysis; assay type: functional; settings: time 20-22 hrs
[6] = system: Escherichia coli; experiment: Antibacterial activity against Escherichia coli ATCC 35218 harboring SbmA assessed as reduction in microbial growth incubated for 20 to 22 hrs by CLSI based analysis; assay type: functional; settings: time 20-22 hrs
[7] = system: Klebsiella pneumoniae; experiment: Antibacterial activity against wild type Klebsiella pneumoniae ATCC 13883 assessed as reduction in microbial growth incubated for 20 to 22 hrs by CLSI based analysis; assay type: functional; settings: time 20-22 hrs
[8] = system: Klebsiella pneumoniae; experiment: Antibacterial activity against Klebsiella pneumoniae ATCC 13883 harboring SbmA assessed as reduction in microbial growth incubated for 20 to 22 hrs by CLSI based analysis; assay type: functional; settings: time 20-22 hrs
[9] = system: Acinetobacter baumannii; experiment: Antibacterial activity against wild type Acinetobacter baumannii ATCC 19606 assessed as reduction in microbial growth incubated for 20 to 22 hrs by CLSI based analysis; assay type: functional; settings: time 20-22 hrs
[10] = system: Escherichia coli; experiment: Antibacterial activity against Escherichia coli ATCC 35218 assessed as reduction in microbial growth incubated for 20 to 22 hrs by CLSI based analysis; assay type: functional; settings: time 20-22 hrs
[11] = system: Klebsiella pneumoniae; experiment: Antibacterial activity against Klebsiella pneumoniae ATCC 13883 assessed as reduction in microbial growth incubated for 20 to 22 hrs by CLSI based analysis; assay type: functional; settings: time 20-22 hrs
[12] = system: Acinetobacter baumannii; experiment: Antibacterial activity against Acinetobacter baumannii ATCC 19606 assessed as reduction in microbial growth incubated for 20 to 22 hrs by CLSI based analysis; assay type: functional; settings: time 20-22 hrs

SMILES	remaining at 4 h [1] [%]	remaining at 4 h [2] [%]	remaining at 1 h [3] [%]	remaining at 1 h [4] [%]	MIC [5] [µg/mL]	MIC [6] [µg/mL]	MIC [7] [µg/mL]	MIC [8] [µg/mL]	MIC [9] [µg/mL]	MIC [10] [µg/mL]	MIC [11] [µg/mL]	MIC [12] [µg/mL]
CO[C@@H](CNC(=O)[C@H](NC(=O)[C@H](O)[C@H](C)O)[C@H](O)c1cncn1C)[C@H](O)[C@H](O)C(=O)N(C)[C@@H](Cc1ccccc1)C(=O)NCC(=O)N[C@H](C(=O)N[C@@H](CO)C(=O)N[C@H](C(=O)N[C@H](C(=O)N[C@@H](CO)C(=O)NCc1cc(=O)c(O)cn1O)C(C)(C)C)C(C)(C)O)C(C)(C)O	84	73	84	99	< 0.01	0.5	0.03	> 32	0.5	–	–	–
CO[C@@H](CNC(=O)[C@H](NC(=O)[C@H](O)[C@H](C)O)[C@H](O)c1cncn1C)[C@H](O)[C@H](O)C(=O)N(C)[C@@H](Cc1ccccc1)C(=O)NCC(=O)N[C@H](C(=O)N[C@@H](CO)C(=O)N[C@H](C(=O)O)C(C)(C)O)C(C)(C)O	–	–	–	–	–	–	–	–	–	> 64	–	–
CO[C@@H](CNC(=O)[C@H](NC(=O)[C@H](O)[C@H](C)O)[C@H](O)c1cncn1C)[C@H](O)[C@H](O)C(=O)N(C)[C@@H](Cc1ccccc1)C(=O)NCC(=O)N[C@H](C(=O)N[C@@H](C)C(=O)N[C@H](C(=O)N[C@@H](CC(C)C)C(=O)N[C@@H](CO)C(=O)O)C(C)(C)O)C(C)(C)O	–	–	–	–	–	–	–	–	–	4	> 32	> 32
CO[C@@H](CNC(=O)[C@H](NC(=O)[C@H](O)[C@H](C)O)[C@H](O)c1cncn1C)[C@H](O)[C@H](O)C(=O)N(C)[C@@H](Cc1ccccc1)C(=O)NCC(=O)N[C@H](C(=O)N[C@@H](CO)C(=O)O)C(C)(C)O	–	–	–	–	–	–	–	–	–	> 64	–	–
CO[C@@H](CNC(=O)[C@H](NC(=O)[C@H](O)[C@H](C)O)[C@H](O)c1cncn1C)[C@H](O)[C@H](O)C(=O)N(C)[C@@H](Cc1ccccc1)C(=O)N[C@@H](C)C(=O)N[C@H](C(=O)N[C@@H](CO)C(=O)N[C@H](C(=O)N[C@@H](CC(C)C)C(=O)N[C@@H](CO)C(=O)O)C(C)(C)O)C(C)(C)O	–	–	–	–	–	–	–	–	–	8	> 32	> 32
CO[C@@H](CNC(=O)[C@H](NC(=O)[C@H](O)[C@H](C)O)[C@H](O)c1cncn1C)[C@H](O)[C@H](O)C(=O)N(C)[C@@H](Cc1ccccc1)C(=O)N[C@@H](C)C(=O)N[C@H](C(=O)N[C@@H](CO)C(=O)N[C@H](C(=O)N[C@H](C(=O)N[C@@H](CO)C(=O)NCc1cc(=O)c(O)cn1O)C(C)(C)C)C(C)(C)O)C(C)(C)O	75	85	91	85	0.06	1	1	> 32	1	–	–	–
CO[C@@H](CNC(=O)[C@H](NC(=O)[C@H](O)[C@H](C)O)[C@H](O)c1cncn1C)[C@H](O)[C@H](O)C(=O)N(C)[C@@H](Cc1ccccc1)C(=O)NCC(=O)N[C@H](C(=O)N[C@@H](CO)C(=O)N[C@H](C(=O)N[C@H](C(=O)N[C@@H](CO)C(=O)N[C@@H](CN)C(=O)NCc1cc(=O)c(O)cn1O)C(C)(C)C)C(C)(C)O)C(C)(C)O	83	75	87	93	0.02	4	0.25	> 32	0.25	–	–	–
CO[C@@H](CNC(=O)[C@H](NC(=O)[C@H](O)[C@H](C)O)[C@H](O)c1cncn1C)[C@H](O)[C@H](O)C(=O)N(C)[C@@H](Cc1ccccc1)C(=O)NCC(=O)N[C@@H](C)C(=O)N[C@@H](CO)C(=O)N[C@H](C(=O)N[C@@H](CC(C)C)C(=O)N[C@@H](CO)C(=O)O)C(C)(C)O	–	–	–	–	–	–	–	–	–	> 32	> 32	> 32
CO[C@@H](CNC(=O)[C@H](NC(=O)[C@H](O)[C@H](C)O)[C@H](O)c1cncn1C)[C@H](O)[C@H](O)C(=O)N(C)[C@@H](Cc1ccc(F)cc1)C(=O)NCC(=O)N[C@H](C(=O)N[C@@H](CO)C(=O)N[C@H](C(=O)N[C@H](C(=O)N[C@@H](CCC(=O)NCc1cc(=O)c(O)cn1O)C(=O)O)C(C)(C)C)C(C)(C)O)C(C)(C)O	101	86	101	92	0.01	0.25	0.12	> 32	0.25	–	–	–
CO[C@@H](CNC(=O)[C@H](NC(=O)[C@H](O)[C@H](C)O)[C@H](O)c1cncn1C)[C@H](O)[C@H](O)C(=O)N(C)[C@@H](Cc1ccc(F)cc1)C(=O)NCC(=O)N[C@H](C(=O)N[C@@H](CO)C(=O)N[C@H](C(=O)N[C@H](C(=O)N[C@@H](CO)C(=O)NCc1ccc(O)c(O)c1)C(C)(C)C)C(C)(C)O)C(C)(C)O	0	0	0	6	0.03	–	0.25	–	0.5	–	–	–
CO[C@@H](CNC(=O)[C@H](NC(=O)[C@H](O)[C@H](C)O)[C@H](O)c1cncn1C)[C@H](O)[C@H](O)C(=O)N(C)[C@@H](Cc1ccccc1)C(=O)NCC(=O)N[C@H](C(=O)N[C@@H](CO)C(=O)N[C@@H](C)C(=O)N[C@@H](CC(C)C)C(=O)N[C@@H](CO)C(=O)O)C(C)(C)O	–	–	–	–	–	–	–	–	–	32	64	> 32
CO[C@@H](CNC(=O)[C@H](NC(=O)[C@H](O)[C@H](C)O)[C@H](O)c1cncn1C)[C@H](O)[C@H](O)C(=O)N(C)[C@@H](Cc1ccccc1)C(=O)NCC(=O)N[C@H](C(=O)N[C@@H](CO)C(=O)N[C@H](C(=O)N[C@H](C(=O)N[C@@H](CO)C(=O)N[C@H](CCC(=O)NCc1cc(=O)c(O)cn1O)C(=O)O)C(C)(C)C)C(C)(C)O)C(C)(C)O	67	77	89	100	< 0.01	1	0.03	32	0.5	–	–	–
CO[C@@H](CNC(=O)[C@H](NC(=O)[C@H](O)[C@H](C)O)[C@H](O)c1cncn1C)[C@H](O)[C@H](O)C(=O)N(C)[C@@H](Cc1ccccc1)C(=O)O	–	–	–	–	–	–	–	–	–	> 64	–	–
CO[C@@H](CNC(=O)[C@H](NC(=O)[C@H](O)[C@H](C)O)[C@H](O)c1cncn1C)[C@H](O)[C@H](O)C(=O)N(C)[C@@H](Cc1ccccc1)C(=O)NCC(=O)N[C@H](C(=O)N[C@@H](CO)C(=O)N[C@H](C(=O)N[C@@H](CC(C)C)C(=O)O)C(C)(C)O)C(C)(C)O	–	–	–	–	–	–	–	–	–	32	–	–
CO[C@@H](CNC(=O)[C@H](NC(=O)[C@H](O)[C@H](C)O)[C@H](O)c1cncn1C)[C@H](O)[C@H](O)C(=O)N(C)[C@@H](Cc1ccc(F)cc1)C(=O)NCC(=O)N[C@H](C(=O)N[C@@H](CO)C(=O)N[C@H](C(=O)N[C@H](C(=O)N[C@@H](CCC(=O)NCc1cc(=O)c(O)cn1O)C(=O)NCCN)C(C)(C)C)C(C)(C)O)C(C)(C)O	41	75	88	61	0.01	4	0.12	> 32	1	–	–	–
CO[C@@H](CNC(=O)[C@H](NC(=O)[C@H](O)[C@H](C)O)[C@H](O)c1cncn1C)[C@H](O)[C@H](O)C(=O)N(C)[C@@H](Cc1ccccc1)C(=O)NCC(=O)N[C@H](C(=O)N[C@@H](CO)C(=O)N[C@H](C(=O)N[C@@H](CC(C)C)C(=O)N[C@@H](CO)C(=O)N[C@@H](CCC(=O)NCc1cc(=O)c(O)cn1O)C(=O)O)C(C)(C)O)C(C)(C)O	0	0	1	22	0.03	0.12	0.25	8	0.5	–	–	–
CC[C@H](C)[C@H](NC(=O)[C@@H](NC(=O)[C@H](CO)NC(=O)[C@@H](NC(=O)CNC(=O)[C@H](Cc1ccccc1)N(C)C(=O)[C@@H](O)[C@@H](O)[C@H](CNC(=O)[C@H](NC(=O)[C@H](O)[C@H](C)O)[C@H](O)c1cncn1C)OC)C(C)(C)O)C(C)(C)O)C(=O)N[C@@H](CO)C(=O)N[C@@H](CCC(=O)NCc1cc(=O)c(O)cn1O)C(=O)O	42	33	73	84	0.03	0.25	0.12	32	0.5	–	–	–
CO[C@@H](CNC(=O)[C@H](N)[C@H](O)c1cncn1C)[C@H](O)[C@H](O)C(=O)N(C)[C@@H](Cc1ccccc1)C(=O)NCC(=O)N[C@H](C(=O)N[C@@H](CO)C(=O)N[C@H](C(=O)N[C@@H](CC(C)C)C(=O)N[C@@H](CO)C(=O)O)C(C)(C)O)C(C)(C)O	–	–	–	–	–	–	–	–	–	> 64	> 64	> 32
CO[C@@H](CNC(=O)[C@H](NC(=O)[C@H](O)[C@H](C)O)[C@H](O)c1cncn1C)[C@H](O)[C@H](O)C(=O)N(C)[C@@H](Cc1ccc(F)cc1)C(=O)NCC(=O)N[C@H](C(=O)N[C@@H](CO)C(=O)N[C@H](C(=O)N[C@H](C(=O)N[C@@H](CO)C(=O)NCc1cccc(O)c1O)C(C)(C)C)C(C)(C)O)C(C)(C)O	0	0	0	11	0.06	–	0.5	–	0.5	–	–	–
